PMC4471902, “Block of NMDA receptor channels by endogenous neurosteroids: implications for the agonist induced conformational states of the channel vestibule” (Scientific Reports, 2015)
Where “and” joins values, the source holds several entries; their conditions need not be identical. Identical values can stand only once. Counter-ions that a name gives are not always drawn.

Key:
[1] = tested on: non-transfected HEK293 cells; experiment: Membrane capacitance measurement of steroid association with and exit from the membrane; type: cell-based, Human
From the text: Membrane capacitance was estimated by examining the integrated capacitive current (sampled at 30 kHz at 10 kHz filter cutoff frequency) evoked by depolarizing or hyperpolarizing voltage pulses from −60 mV to +30 mV for 3 ms delivered at 200 Hz.

[2] = Steroid concentration in the cytoplasmic membrane (erythrocyte membrane ghosts, HPLC-MS); type: physicochemical, rat
Experimental: All animal manipulations were conducted in accordance with the Animal Protection Code of the Czech Republic and corresponding directives of the European Community Council (2010/63/EC). Experiments were approved by the Animal Care and Use Committee of the Institute of Physiology of the Academy of Sciences of the Czech Republic. Blood was collected from one adult Wistar rat, heparinized, and spun down at 1,000 g for 10 min. Cells were washed once with PBS, briefly spun down and the pellet resuspended in a minimum amount of ECS. Cells were counted and 200 μl aliquots (~3*10^9 cells) were taken for the experiment. Cell membranes were prepared by 30 min erythrocyte lysis in distilled water followed by centrifugation at 25,000 g for 10 min and resuspension in 200 μl of ECS. Cell membranes were incubated for 2 min with PA-S solution in ECS at the final volume of 500 μl, followed by a spin down at 20,000 g for 2 min. Supernatants were taken for liquid chromatography-mass spectrometry analysis (HPLC-MS). Solution of PA-S without membranes served as a control. […]
PA-S concentration was assessed in ECS to which steroid was added from its 20 mM stock solution ([PA-S]ECS) and in the supernatant of a solution containing er ythroc yte membranes ([PA-S]EC S+M) (see Methods). The concentration of steroid in the membrane ([PA-S]M) was calculated from the difference of [PA-S] in the control solution ([PA-S] EC S) and that in the supernatant containin g m embranes ([PA-S]EC S+M) accordin g to [PA-S]M = ([PA-S]ECS - [PA-S]EC S+M) · Vsolu tion /Vmembrane (where V denotes volume). Data points were fitted to the linear equation of the following form y = 38.8 * x; The partition coeffici ent for P A-S was calculated […]
7.4) determined using the online program CHEMICALIZE (http://www.chemicalize.org/).
Data points represent the mean of two independent measurements. The values of the partition coefficient (log D) of PA-S in the erythrocyte cytoplasmic membrane was calculated assuming 136 μm2 as the mean surface area of a rat erythroc yte and 4 nm as the mean membrane thickness. […]

[3] = Light scattering analysis of particle size in ECS; type: physicochemical
Experimental: Light scattering (Zetasizer Nano ZS, Malvern Instruments, United Kingdom) was used to characterize particle size of PA-S in ECS. PA-S was dissolved in DMSO at a concentration of 20 mM and then in the ECS at a final concentration of 5 nM to 150 μM PA-S. This solution was sonicated (Ultrasonic Sonorex Super RK 103 H, Bandelin electronic GmbH & Co. KG, Germany) for 1 min. Light scattering analysis was repeated six times for each sample at 25 °C.

CC(=O)[C@H]1CC[C@H]2[C@@H]3CC[C@@H]4C[C@H](OS(=O)(=O)O)CC[C@]4(C)[C@H]3CC[C@]12C [PA-S, 20-oxo-5β-pregnan-3α-yl sulfate]
fast dissociation time constant from the membrane [1]: ≤ 1 ms | koff (rate of steroid dissociation from the membrane) [1]: ≥ 1000 s⁻¹ | capacitance increase during the steroid application ([1]; PA-S 150 μM for 1 s, attached cells): ~ 3% | capacitance return after steroid washout As ([1]; PA-S 150 μM, attached cells): 41 ± 2% | capacitance return after steroid washout τf ([1]; PA-S 150 μM, attached cells): < 5 ms | capacitance return after steroid washout τs ([1]; PA-S 150 μM, attached cells): 222 ± 8 ms and 244 ms | capacitance change after PA-S washout τ ([1]; lifted cells, only fast component resolved): < 5 ms | equilibrium surface density S ([2]; calculated for the PA-S IC50 value of 55.7 µM): 4.32 10−9 M m −2 | flux Jout of steroid from the membrane into the aqueous phase ([2]; product of [PA-S]membrane and koff): at least 4.3 μM s^−1 m^−2 | slope of linear fit of [PA-S]M versus aqueous concentration ([2]; y = slope * x): 38.8 | PA-S concentration at which two particle sizes are present ([3]; ECS): > 300 nM | PA-S concentration at which two particle sizes were observed ([3]; ECS): ≥ 0.4 µM | small particle size (single steroid molecule) ([3]; ECS): ~ 2.5 nm | critical aggregate concentration (CAC) ([3]; ECS, 25 °C): ~ 300 nM and 300 nM | size of aggregates ([3]; ECS, concentrations relevant to effect at the NMDAR): ~ 400 nm | molecules present in the ECS in aggregates ([3]; at the PA-S concentration corresponding to its IC50 at NMDARs): 99.5%
